Results as given in PubChem BioAssay AID830 (PCMD, 2007).
Results filed as inconclusive are left out.

Biological target: Cathepsin B (Homo sapiens) (UniProt P07858)
Assay: CTSB inhibitor potency, concentration-effect curve, cell-free enzymatic assay, actives from pooled-compound high-throughput screen (AID 830)
Details: purified cathepsin B enzyme activity, signal read-out

| Compound | IC50 [µM] |
| --- | --- |
| O=S(=O)(/N=S1/CC=CCN1S(=O)(=O)c1ccccc1)c1ccccc1 (stereo unspecified) | 9.39 |
| Cc1ccc(S(=O)(=O)n2nc(OC(=O)c3cccs3)cc2N)cc1 | 1.99 |
| Cc1ccc(S(=O)(=O)n2nc(OC(=O)c3ccco3)cc2N)cc1 | 1.75 |
| Nc1cc(OC(=O)c2ccco2)nn1S(=O)(=O)c1ccc(F)cc1 | 1.26 |
| Nc1nc2n(n1)C1(CCCCC1)C1=C(CCCC1)N2 | 12.9 |
| Nc1cc(OC(=O)c2cccs2)nn1S(=O)(=O)c1ccccc1 | 0.247 |
